The values that follow come from paper PMC5238559, “Biomimetic synthesis and HPLC–ECD analysis of the isomers of dracocephins A and B” (Beilstein Journal of Organic Chemistry, 2016).

Values after ≈ are worked out from the molar mass of the structure shown. Read-outs that look alike come from different tables or passages of the source.

One series relates to P-glycoprotein (P-gp). In words: Rhodamine 123 accumulation in P-gp transfected L5178MDR cells. In kind it is cell-based. To be noted: 2 and 20 μM of compound. The protocol:
In connection with the BBB penetration studies, 2a–d and 3a–d were tested for their potential towards CNS cytotoxic activity on undifferentiated SH-SY5Y neuroblastoma cells. […] On the other hand, the possibility for neuroprotective activity could not be tested with the applied experimental setup. As an additional bioassay on compounds 2a–d and 3a–d, their potential to interfere with the function of P-glycoprotein (P-gp) was tested. By transporting a wide variety of compounds from the CNS back into the blood stream, P-gp is an important element of the BBB [16]. […]
(§1) for 4 h. After the incubation, PAMPA sandwich plates are separated and compound concentrations in donor and acceptor solutions are determined by HPLC-DAD. […]
(§2) Cytotoxicity on SH-SY5Y cells: Cytotoxicity on SH-SY5Y cells was measured in an analogous manner as described in the literature. […]
(§3) were read after o/n incubation. Fifty percent inhibitory concentrations (IC50) were calculated using nonlinear regression curve fitting of log (inhibitor) versus normalized response and variable slope with a least squares (ordinary) fit of GraphPad Prism 5 software, for three independent samples.
Evaluation of compounds effect on rhodamine 123 accumulation: Rd123 concentration inside L5178PAR and L5178MDR cells was determined by flow cytometry. […]

A short description of series [1]: DPPH radical scavenging test. The following applies: microplate format. The protocol: Antioxidant activity: The radical scavenging capacity of dracocephins A and B were
tested in the microplate format of the 2,2-diphenyl-1-picrylhydrazyl (DPPH) assay.
Naringenin and quercetin were obtained from PhytoLab (Vestenbergsgreuth,
Germany), and used as controls. […]
On the technique in general: The DPPH test is a chemical assay of radical scavenging.

A short description of another series: in vitro. In kind it is in vitro ADME. The following applies: pig, PAMPA, pH 7.4. The protocol:
Physicochemical characterization of dracocephins A and B was also carried out. […] Similarly to this lipophilicity trend, the TPSA value of (±)-naringenin is lower than dracocephins A and B, however, there is no difference between the calculated TPSA values of 2a–d and 3a–d. […] Among these proton-dissociation constants, the lowest acidic pKa values are predominant in physiological environment, which is also indicated by the difference of log D values between pH 7.4 and pH 6.5. The blood–brain barrier (BBB) specific penetration of dracocephins isomers has also been studied by the PAMPA (parallel artificial membrane permeability assay)-BBB model system, which indicates passive diffusion of test compounds across the brain capillary endothelium. […]
n-octanol. […] For each compound a minimum of three to six titrations at different phase volume ratios were measured, and the respective average logP values were calculated. logD values were also calculated by logP and pKa values using the Henderson– Hasselbalch equation. […]
as §1, §2
Background: PAMPA measures passive passage across an artificial lipid membrane.

Series [2] can be described thus: logP determination by titrations in the presence of n-octanol; logD calculated from logP and pKa. The format is physicochemical. To be noted: n-octanol/water; for logP: lipophilicity of neutral species; for logD: calculated from logP and pKa by Henderson–Hasselbalch equation. As for the experimental part:
(§4) n-octanol. From the n-octanol containing titrations the poKa (the apparent ionization constant in the presence of n-octanol) and then logP values were estimated and refined by a weighted non-linear least-squares procedure, where the aqueous pKa values (taken from aqueous titrations) were used as unrefined contributions. For each compound a minimum of three to six titrations at different phase volume ratios were measured, and the respective average logP values were calculated. logD values were also calculated by logP and pKa values using the Henderson– Hasselbalch equation. The relevant relationships between logP, pKa, and poKa, for mono- and multiprotic substances, including cases of ion-pair formation, have been described in detail earlier. […]

The nature of series [3]: pKa determination by aqueous titrations. The format is physicochemical. The following applies: aqueous solution, phenolic hydroxy group. As for the experimental part:
as §4

Series [4] in a line: Cytotoxicity on SH-SY5Y cells (MTT). In kind it is cell-based. To be noted: human, undifferentiated SH-SY5Y neuroblastoma cells. The protocol: for 4 h. After the incubation, PAMPA sandwich plates are separated and compound concentrations in donor and acceptor solutions are determined by HPLC-DAD.
SH-SY5Y neuroblastoma was cultured in EMEM media supplemented with non-essential amino acids, 1 mM Na pyruvate and 10% inactivated fetal bovine serum, nystatin, 2 mM L-glutamine, 100 U penicillin and 0.1 mg streptomycin, purchased from Sigma. Cells were cultured at 37 °C and 5% CO2. […]
as §2, §3
Evaluation of compounds effect on rhodamine 123 accumulation: Rd123 concentration inside L5178PAR and L5178MDR cells was determined by flow cytometry.
Briefly, 2 × 10^6 cells/mL were treated with 2 and 20 μM of each compound and incubated for 10 min at rt. […] The fluorescence of the samples was measured by flow cytometry (Becton Dickinson FACScan, BD, U.S.). […]
Fluorescence activity ratio measures the capacity of inhibition (accumulation of Rd123) and it is equal to the ratio between the FL-1 values of the L5178MDR cells […]

[5] abbreviates: first value in cell, read-out: pKa (first, lowest acidic).
[6] abbreviates: second value in cell, read-out: pKa (second) (converted).
[7] abbreviates: third value in cell, read-out: pKa (third) (converted).

Consider `O=C1CCC(c2c(O)cc3c(c2O)C(=O)CC(c2ccc(O)cc2)O3)N1` (stereo not drawn) [2a–d, 6-(2”-pyrrolidinone-5”-yl)naringenin], for which, in the series with P-glycoprotein (P-gp), the “P-gp inhibition (rhodamine 123 accumulation)” value is given as “none of the synthesized compounds inhibits this transporter”. Besides, the “IC50 DPPH radical scavenging” value in series [1] is listed as over 200 µg/mL. For the same molecule, the Papp at 4 h, 100 µM in the series “in vitro” is 1.1 ± 0.1 ×10⁻⁶ cm/s. Besides, in series [2], the logP is 2.52 ± 0.02. The logD in series [2] (pH 6.5, read-out: log D6.5) was 2.31; in series [2] (pH 7.4, read-out: log D7.4), 1.74. The pKa was 6.69 ± 0.01 in series [3] (setting [5]), 9.47 in series [3] (setting [6]) and 12.3 in series [3] (setting [7]). Moreover, in series [4], the IC50 at 48 h is over 150 µM.

Take `O=C1CCC(c2c(O)cc(O)c3c2OC(c2ccc(O)cc2)CC3=O)N1` (stereo not drawn) [3a–d, 8-(2”-pyrrolidinone-5”-yl)naringenin]: in the series with P-glycoprotein (P-gp), the “P-gp inhibition (rhodamine 123 accumulation)” value is “none of the synthesized compounds inhibits this transporter”. In series [1], the “IC50 DPPH radical scavenging” value was over 200 µg/mL. Besides, the logP in series [2] was 2.39 ± 0.02. Further, the logD is 2.12 in series [2] (pH 6.5, read-out: log D6.5) and 1.51 in series [2] (pH 7.4, read-out: log D7.4). Further, the pKa in series [3] (setting [5]) is 6.54; in series [3] (setting [6]), 9.54; in series [3] (setting [7]), 12. Also, the half-maximal inhibitory concentration (IC50) at 48 h in series [4] was over 150 µM.

Consider `O=c1c(O)c(-c2ccc(O)c(O)c2)oc2cc(O)cc(O)c12` [quercetin, reference compound], for which the “IC50 DPPH radical scavenging” value in series [1] is 9.4 ± 0.6 µg/mL (≈ 31.1 µM).

With naringenin [(±)-1, reference compound], the “IC50 DPPH radical scavenging” value in series [1] is over 200 µg/mL.

As a reminder, the Papp is a coefficient for how fast a substance crosses the barrier. The low end stands for slow passage, the high end for fast passage. As a reminder, the logP is a log measure of how a compound divides between an organic and an aqueous phase. As usually defined, the pKa is the negative logarithm of the acid dissociation constant. By IC50 is commonly meant the point on the concentration scale where inhibition reaches its midpoint. The low end stands for greater potency in that assay, the high end for weaker potency in that assay.
